Patent publication US8987199B2, “Pharmaceutical compositions for intranasal administration for the treatment of neurodegenerative disorders” (Nerve Access, Inc., priority 2011, dated 2015)

Experiment: Solubility of clioquinol in an aqueous medium
Format: physicochemical
Excerpt: The invention also includes a process to dissolve, stabilize and incorporate clioquinol into an intranasal preparation. Clioquinol dissolves in DMSO. However, it precipitates upon the addition of an aqueous vehicle to that combination. In order to dissolve in an aqueous medium clioquinol requires a pH of approximately 11. A buffering system was developed that maintains the solubility and stability of clioquinol within a pH 7-8 which is compatible with the physiological pH oh the nasal tissue. The buffering system was adjusted to provide a capacity of pH 5-7, within which the preparation will be contained within 7-8 pH. The choice of the buffering system was based on the safety, chemical and physical effects of its ingredients on clioquinol and the other ingredients incorporated in the formula, as well as its effects on the end user of present pharmaceutical composition. The buffer system comprises boric acid and sodium carbonate in certain proportions to produce a protective pH 7-8 at which clioquinol stays physically and chemically stable.

pH required to dissolve in an aqueous medium: approximately 11
Structure (SMILES): Oc1c(I)cc(Cl)c2cccnc12 [Clioquinol]
